# Measured values taken from US7517874B2 (priority 2007, dated 2009).
# Like-named read-outs stand apart in the source and are kept apart here.
# How the values were obtained:
# rat CB2 receptor (rCB2) = target: T1, rat CB2 receptor (rCB2) (Rattus norvegicus, UniProt Q9QZN9); assay: cell-based; type: cell-based; conditions: for +/− RCB2: agonist or inverse agonist at rCB2
# T1 sequence (Q9QZN9 1-360): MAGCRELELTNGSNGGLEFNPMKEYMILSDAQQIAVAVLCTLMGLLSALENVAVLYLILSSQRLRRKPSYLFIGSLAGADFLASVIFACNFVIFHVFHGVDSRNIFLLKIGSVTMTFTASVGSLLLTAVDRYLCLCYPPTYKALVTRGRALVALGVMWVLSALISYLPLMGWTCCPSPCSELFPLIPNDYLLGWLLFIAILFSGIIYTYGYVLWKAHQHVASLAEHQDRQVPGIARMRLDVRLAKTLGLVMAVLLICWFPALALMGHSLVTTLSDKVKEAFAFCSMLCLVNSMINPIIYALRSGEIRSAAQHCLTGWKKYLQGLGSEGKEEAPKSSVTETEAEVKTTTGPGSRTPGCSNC
# How it was run: (§1)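 Agonism or inverse agonism was assessed as change in intracellular cAMP in CHO-K1 cells expressing human CB1 or rat CB2 (genomic DNA, pcDNA3.1).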
# [1] = target: human CB1 receptor (hCB1) (Homo sapiens, UniProt P21554); assay: cell-based; type: cell-based; conditions: for +/− HCB1: agonist or inverse agonist at hCB1
# Sequence of human CB1 receptor (hCB1) (P21554 whole entry): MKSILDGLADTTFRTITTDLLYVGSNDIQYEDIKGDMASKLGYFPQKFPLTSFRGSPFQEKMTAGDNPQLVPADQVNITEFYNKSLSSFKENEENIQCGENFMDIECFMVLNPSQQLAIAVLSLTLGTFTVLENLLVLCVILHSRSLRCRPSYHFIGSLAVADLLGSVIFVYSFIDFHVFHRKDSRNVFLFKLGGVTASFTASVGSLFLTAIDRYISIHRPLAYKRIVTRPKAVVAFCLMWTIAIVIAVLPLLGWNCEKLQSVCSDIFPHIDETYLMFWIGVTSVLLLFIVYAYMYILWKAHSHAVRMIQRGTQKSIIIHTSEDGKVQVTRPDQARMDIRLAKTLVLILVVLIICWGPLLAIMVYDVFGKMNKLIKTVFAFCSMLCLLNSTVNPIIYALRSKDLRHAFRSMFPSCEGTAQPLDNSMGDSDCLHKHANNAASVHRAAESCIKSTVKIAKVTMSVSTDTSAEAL
# How it was run: as §1
# [2] = groups >100 nM-10 μM and >10 μM, cAMP, CHO-K1 hCB1, read-out: EC50 HCB1
SMILES,+/− RCB2 (rat CB2 receptor (rCB2)),EC50 [1],further results
"CNC(=O)[C@@H](NC(=O)c1nc(C2=CCC(C)CC2)n2c1CN(C)CC2)C(C)(C)C (stereo partly drawn) [Compound 270, N-((S)-3,3-dimethyl-1-(methylamino)-1-oxobutan-2-yl)-7-methyl-3-(4-methylcyclohex-1-enyl)-5,6,7,8-tetrahydroimidazo[1,5-a]pyrazine-1-carboxamide]",−,> 10000 nM,
"Cc1nnc([C@@H](NC(=O)c2nc(-c3ccccc3)n3c2CNCC3)C(C)(C)C)o1 [Compound 200, (S)-N-(2,2-dimethyl-1-(5-methyl-1,3,4-oxadiazol-2-yl)propyl)-3-phenyl-5,6,7,8-tetrahydroimidazo[1,5-a]pyrazine-1-carboxamide]",+,> 10000 nM,
"CNC(=O)[C@@H](NC(=O)c1nc(-c2ccccc2)n2c1CN(C)CC2)C(C)(C)C [Compound 48, (S)-N-(3,3-dimethyl-1-(methylamino)-1-oxobutan-2-yl)-7-methyl-3-phenyl-5,6,7,8-tetrahydroimidazo[1,5-a]pyrazine-1-carboxamide]",+,> 10000 nM,
"CNC(=O)[C@@H](NC(=O)c1nc(-c2c(F)cccc2F)n2c1CN(C)CCC2)C(C)(C)C [Compound 601, (S)-3-(2,6-difluorophenyl)-N-(3,3-dimethyl-1-(methylamino)-1-oxobutan-2-yl)-8-methyl-6,7,8,9-tetrahydro-5H-imidazo[1,5-a][1,4]diazepine-1-carboxamide]",+,,+/− HCB1 [1]: +
"CCS(=O)(=O)N1CCn2c(-c3ccccc3)nc(C(=O)N[C@H](C)C3CCCCC3)c2C1 [Compound 111, (R)-N-(1-cyclohexylethyl)-7-(ethylsulfonyl)-3-phenyl-5,6,7,8-tetrahydroimidazo[1,5-a]pyrazine-1-carboxamide]",,> 10000 nM,EC50 (rat CB2 receptor (rCB2)): > 10000 nM
"CNC(=O)[C@@H](NC(=O)c1nc(-c2ccc(C(F)(F)F)cc2)n2c1CN(C)CCC2)C(C)(C)C [Compound 330, (S)-N-(3,3-dimethyl-1-(methylamino)-1-oxobutan-2-yl)-8-methyl-3-(4-(trifluoromethyl)phenyl)-6,7,8,9-tetrahydro-5H-imidazo[1,5-a][1,4]diazepine-1-carboxamide]",−,> 10000 nM,
"CNC(=O)[C@@H](NC(=O)c1nc(-c2ccc(C(=O)N3CCN(C)CC3)cc2)n2c1CN(C)CCC2)C(C)(C)C [Compound 392, (S)-N-(3,3-dimethyl-1-(methylamino)-1-oxobutan-2-yl)-8-methyl-3-(4-(4-methylpiperazin-1-carbonyl)phenyl)-6,7,8,9-tetrahydro-5H-imidazo[1,5-a][1,4]diazepine-1-carboxamide]",,,"EC50 (rat CB2 receptor (rCB2); groups >100 nM-10 μM and >10 μM, cAMP, CHO-K1 rCB2, read-out: EC50 RCB2): > 10000 nM; EC50 [1, 2]: > 10000 nM"
COC(=O)[C@@H](NC(=O)c1nc(-c2ccc(C)cc2F)n2c1CNCCC2)C(C)(C)C [Compound 466],−,> 10000 nM,
"CNC(=O)[C@@H](NC(=O)c1nc(-c2ccc(C)o2)n2c1CN(C)CCC2)C(C)(C)C [Compound 443, (S)-N-(3,3-dimethyl-1-(methylamino)-1-oxobutan-2-yl)-8-methyl-3-(5-methylfuran-2-yl)-6,7,8,9-tetrahydro-5H-imidazo[1,5-a][1,4]diazepine-1-carboxamide]",−,> 10000 nM,
"CNC(=O)[C@@H](NC(=O)c1nc(CCCN2CCCCC2)n2c1CN(C)CC2)C(C)(C)C [Compound 307, (S)-N-(3,3-dimethyl-1-(methylamino)-1-oxobutan-2-yl)-7-methyl-3-(3-(piperidin-1-yl)propyl)-5,6,7,8-tetrahydroimidazo[1,5-a]pyrazine-1-carboxamide]",+,> 10000 nM,
"CNC(=O)[C@@H](NC(=O)c1nc(-c2ccccc2OC(F)(F)F)n2c1CN(C)CCC2)C(C)(C)C [Compound 333, (S)-N-(3,3-dimethyl-1-(methylamino)-1-oxobutan-2-yl)-8-methyl-3-(2-(trifluoromethoxy)phenyl)-6,7,8,9-tetrahydro-5H-imidazo[1,5-a][1,4]diazepine-1-carboxamide]",+,> 10000 nM,
"CNC(=O)[C@@H](NC(=O)c1nc(-c2ccccc2C#N)n2c1CN(C)CC2)C(C)(C)C [Compound 259, (S)-3-(2-cyanophenyl)-N-(3,3-dimethyl-1-(methylamino)-1-oxobutan-2-yl)-7-methyl-5,6,7,8-tetrahydroimidazo[1,5-a]pyrazine-1-carboxamide]",,> 10000 nM,EC50 (rat CB2 receptor (rCB2)): > 10000 nM
"CC(C)(C)[C@@H](CO)NC(=O)c1nc(-c2ccccc2)n2c1CN(S(=O)(=O)c1ccc(F)cc1)CC2 [Compound 101, (S)-7-(4-fluorophenylsulfonyl)-N-(1-hydroxy-3,3-dimethylbutan-2-yl)-3-phenyl-5,6,7,8-tetrahydroimidazo[1,5-a]pyrazine-1-carboxamide]",−,> 10000 nM,
"CNC(=O)[C@@H](NC(=O)c1nc(CC(C)C)n2c1CN(C)CCC2)C(C)(C)C [Compound 486, (S)-N-(3,3-dimethyl-1-(methylamino)-1-oxobutan-2-yl)-3-isobutyl-8-methyl-6,7,8,9-tetrahydro-5H-imidazo[1,5-a][1,4]diazepine-1-carboxamide]",+,> 10000 nM,
"CN1CCn2c(-c3ccc(Cl)cc3F)nc(C(=O)N3CCC(n4c(=O)[nH]c5cc(Cl)ccc54)CC3)c2C1 [Compound 212, 5-chloro-1-(1-(3-(4-chloro-2-fluorophenyl)-7-methyl-5,6,7,8-tetrahydroimidazo[1,5-a]pyrazine-1-carbonyl)piperidin-4-yl)-1H-benzo[d]imidazol-2(3H)-one]",−,,"EC50 [1, 2]: > 10000 nM"
"CNC(=O)[C@@H](NC(=O)c1nc(-c2cccc(N(C)C)c2)n2c1CN(C)CCC2)C(C)(C)C [Compound 382, (S)-N-(3,3-dimethyl-1-(methylamino)-1-oxobutan-2-yl)-3-(3-(dimethylamino)phenyl)-8-methyl-6,7,8,9-tetrahydro-5H-imidazo[1,5-a][1,4]diazepine-1-carboxamide]",−,> 10000 nM,
"CNC(=O)[C@H](CC(C)C)NC(=O)c1nc(C2=CCCC2)n2c1CN(C)CC2 [Compound 279, (S)-3-cyclopentenyl-7-methyl-N-(4-methyl-1-(methylamino)-1-oxopentan-2-yl)-5,6,7,8-tetrahydroimidazo[1,5-a]pyrazine-1-carboxamide]",+,,+/− HCB1 [1]: +
"CNC(=O)[C@@H](NC(=O)c1nc(Cl)n2c1CNCCC2)C(C)(C)C [Compound 597, (S)-3-chloro-N-(3,3-dimethyl-1-(methylamino)-1-oxobutan-2-yl)-6,7,8,9-tetrahydro-5H-imidazo[1,5-a][1,4]diazepine-1-carboxamide]",+,> 10000 nM,
"CCC(CO)NC(=O)c1nc(-c2ccccc2)n2c1CN(C)CC2 (centres unmarked) [Compound 232, N-(1-hydroxybutan-2-yl)-7-methyl-3-phenyl-5,6,7,8-tetrahydroimidazo[1,5-a]pyrazine-1-carboxamide]",,> 10000 nM,EC50 (rat CB2 receptor (rCB2)): > 10000 nM
"CNC(=O)[C@@H](NC(=O)c1nc(-c2ccc(C)c(Cl)c2)n2c1CN(C)CCC2)C(C)(C)C [Compound 334, (S)-3-(3-chloro-4-methylphenyl)-N-(3,3-dimethyl-1-(methylamino)-1-oxobutan-2-yl)-8-methyl-6,7,8,9-tetrahydro-5H-imidazo[1,5-a][1,4]diazepine-1-carboxamide]",,> 10000 nM,EC50 (rat CB2 receptor (rCB2)): > 10000 nM
"CNC(=O)[C@@H](NC(=O)c1nc(-c2ccccc2OC)n2c1CN(C)CCC2)C(C)(C)C [Compound 325, (S)-N-(3,3-dimethyl-1-(methylamino)-1-oxobutan-2-yl)-3-(2-methoxyphenyl)-8-methyl-6,7,8,9-tetrahydro-5H-imidazo[1,5-a][1,4]diazepine-1-carboxamide]",+,> 10000 nM,
"CCS(=O)(=O)N1CCn2c(-c3ccccc3)nc(C(=O)NC3C4(C)CCC(C4)C3(C)C)c2C1 (centres unmarked) [Compound 112, 7-(ethylsulfonyl)-3-phenyl-N-(1,3,3-trimethylbicyclo[2.2.1]heptan-2-yl)-5,6,7,8-tetrahydroimidazo[1,5-a]pyrazine-1-carboxamide]",−,> 10000 nM,
"CNC(=O)[C@@H](NC(=O)c1nc(-c2cccc(Cl)c2)n2c1CNCC2)C(C)(C)C [Compound 18, (S)-3-(3-chlorophenyl)-N-(3,3-dimethyl-1-(methylamino)-1-oxobutan-2-yl)-5,6,7,8-tetrahydroimidazo[1,5-a]pyrazine-1-carboxamide]",−,> 10000 nM,
"CC(C)(C)c1noc([C@@H](NC(=O)c2nc(-c3ccccc3)n3c2CN(C2CC2)CC3)C(C)(C)C)n1 [Compound 284, (S)-N-(1-(3-tert-butyl-1,2,4-oxadiazol-5-yl)-2,2-dimethylpropyl)-7-cyclopropyl-3-phenyl-5,6,7,8-tetrahydroimidazo[1,5-a]pyrazine-1-carboxamide]",−,> 10000 nM,
"CC(=O)N1CCn2c(-c3ccccc3)nc(C(=O)N[C@H](C)C3CCCCC3)c2C1 [Compound 170, (R)-7-acetyl-N-(1-cyclohexylethyl)-3-phenyl-5,6,7,8-tetrahydro-imidazo[1,5-a]pyrazine-1-carboxamide]",−,> 10000 nM,
